According to patent US4808589A, “Pyrimidone derivatives” (Smith Kline & French Laboratories Limited, priority 1982, dated 1989):

Test system: histamine H2 -receptors
Test: inhibition of histamine-stimulated secretion of gastric acid from lumen-perfused stomachs of rats anaesthetised with urethane
Type: in vivo, rat
Settings: i.v., lumen-perfused stomach of urethane-anaesthetised rats

With `Cc1ccc(Cc2cnc(CCSCc3csc(NC(=N)N)n3)[nH]c2=O)cn1.Cl.Cl.Cl.O` [Example 1, 2-[2-(2-guanidino-4-thiazolylmethylthio)ethyl]-5-(6-methyl-3-pyridylmethyl)-4-pyrimidone trihydrochloride hydrate] the “dose causing 50% inhibition of maximal acid secretion” value was “less than 1 micromole kg^-1”.
With `Cc1ccc(Cc2cnc(CCSCc3ccc(CN(C)C)o3)[nH]c2=O)cn1` [Example 2, 2-[2-(5-dimethylaminomethyl-2-furanylmethylthio)ethyl]-5-(6-methyl-3-pyridyl-ylmethyl)-4-pyrimidone] the “dose causing 50% inhibition of maximal acid secretion” value was “less than 1 micromole kg^-1”.
